Reference: PMC8587999, “Assessment of the Activity of Decoquinate and Its Quinoline-O-Carbamate Derivatives against Toxoplasma gondii In Vitro and in Pregnant Mice Infected with T. gondii Oocysts” (Molecules, 2021)
Like-named read-outs stand apart in the source and are kept apart here.

Columns and labels:
[1] = test system: T. gondii β-gal tachyzoites; experiment: IC50 determination with T. gondii β-gal tachyzoites grown in HFF monolayers; assay type: cell-based, Toxoplasma gondii; settings: for IC50: Toxoplasma gondii
Procedure: The efficacy of DCQ in vitro was determined using T. gondii β-gal constitutively expressing β-galactosidase grown in HFF monolayers. […] The low IC50 values and the low degree of cytotoxicity against HFF host cells in vitro encouraged us to examine the efficacy of oral treatment of CD1 mice infected with T. gondii oocysts with DCQ at 10 mg/kg/day for 5 days.
Due to the negative effects of treatment with DCQ, we investigated the efficacy in vitro of the three DCQ derivatives RMB054, RMB055 and RMB060 (Figure 1) in comparison to DCQ. Different concentrations of DCQ and the derivatives in DMSO were added to HFF either concomitantly with infection of T. gondii-β-gal tachyzoites, or 3 h after infection. […] The corresponding dose-response curves are shown in Supplementary Materials Figure S1. The viability of uninfected HFF was not impaired by the compounds up to concentrations of 5 µM (DCQ and RMB054) or 10 µM (RMB055, RMB060) (Table 1).
(§1) HFF cytotoxicity assessments and IC50 determinations using cultures of Tg-β-gal tachyzoites grown in HFF were carried out as described previously. IC50 values were calculated with the logit-log-transformation of the relative growth and subsequent regression analysis was done with the corresponding software tool contained in Microsoft Excel software package (Microsoft, Seattle, WA). For the long-term treatments, HFF grown in T25 culture flasks were infected with 5 × 10^5 TgMe49 tachyzoites, and after 4.5 h 0.5 μM DCQ, RMB054 or RMB060 were added. Infected cultures treated with the highest corresponding concentration of DMSO (0.5%) served as controls. Prolonged treatments for up to 24 days were carried out, with the addition of fresh medium containing the respective drug every 3–4 days. Cultures were inspected by light microscopy on a daily basis. On days 3, 6, 9, 13, 16, 20 and 24, the compound-containing medium was removed, and parasites were maintained without drug pressure until host cell lysis (plaque formation) was evident.

[2] = test system: BAG1 (bradyzoite antigen 1) expression in T. gondii Me49; experiment: Immunofluorescence staining for BAG1 expression in TgMe49-infected HFF; assay type: cell-based, Toxoplasma gondii; settings: treatment for 48 h
Procedure: For immunofluorescence microscopy, 4 × 10^4 HFF were grown on glass coverslips for 24 h to form a sub-confluent monolayer and were exposed to 1.2 × 10^5 TgMe49 tachyzoites during 4 h at 37 °C and 5% CO2. The medium was replaced and supplemented with 20 nM DCQ and RMB060, or medium containing DMSO as control. Cultures infected with TgPgSp1 (low passage number) served as positive control for BAG1 (bradyzoite antigen 1) expression. Infected cells were cultured for 16 h, 24 h, and 48 h and fixed and labelled for immunofluorescence staining as described previously. A polyclonal rabbit anti-BAG1 antiserum was applied at 1:200 dilution, followed by a goat-anti-rabbit fluorescein-isothiocyanate conjugate (1:300), the monoclonal mouse anti-TgSAG1 antibody was diluted (1:100), followed by goat anti-mouse conjugated to tetramethylrhodamine-isothiocyanate at 1:300. Subsequently, samples were mounted in H-1200 Vectashield mounting medium (Vector Laboratories, Burlingame, CA, USA) containing 4,6-diamidino-2-phenylindole and were viewed on a Nikon E80i fluorescence microscope (Tokyo, Japan). Processing of images was performed using Openlab 5.5.2 (Improvision, PerkinElmer, Waltham, MA, USA) and the ImageJ software, version 1.53 m.

[3] = test system: human foreskin fibroblasts (HFF); experiment: HFF cytotoxicity assessment; assay type: cell-based; settings: for IC50: Homo sapiens, Fibroblast, uninfected HFF, no decline in viability over the concentration range
Procedure: as §1

[4] = test system: T. gondii Me49 tachyzoites; experiment: Long-term drug treatment of TgMe49-infected HFF in vitro; assay type: cell-based, Toxoplasma gondii
Procedure: as §1, with “Prolonged treatments for up to 24 days were carried out, with the addition of fresh medium containing the respective drug every 3–4 days.” left out

[5] = parameters: method as in https://www.drugs.com/pro/deccox.html; settings: rats; ref https://www.drugs.com/pro/deccox.html; cited from earlier work
[6] = Pregnancy interference test in non-infected BALB/c mice; assay type: in vivo; settings: for No. of Non-Pregnant Mice/No. of Mice / No. of Pregnant Mice/No. of Mice: non-infected BALB/c; for Litter Size: total pups per group
Procedure: Eighteen female and 9 male BALB/c mice, all 8 weeks of age, were used. The females were oestrus-synchronized for 3 days by the Whitten effect and were mated by housing 2 females and 1 male for 72 h in one cage. Males were removed after mating and females were randomly assigned to 3 experimental groups of 6 mice each: DCQ; RMB060; placebo. On days 9–13 post-mating, DCQ and RMB060 were supplied at 10 mg/kg/day in 100 μL corn oil by oral gavage. The placebo group only received corn oil. Mice were observed and weighed on several days and on day 18, post-mating pregnant females were separated into single cages. […] Dams and pups were observed daily and data on fertility, litter size, neonatal and postnatal mortality was recorded for the following 2 weeks. All mice were euthanized in a chamber by isoflurane/CO2 inhalation.

[7] = test system: T. gondii Me49 tachyzoites; experiment: TEM of T. gondii Me49 tachyzoites cultured in HFF under drug treatment; assay type: cell-based, Toxoplasma gondii
Procedure: For transmission electron microscopy (TEM), HFF grown in T25 culture flasks were infected with 10^7 TgMe49 tachyzoites and incubated for 3 h at 37 °C and 5% CO2. Subsequently, cultures were exposed to continuous treatment of 6h, 24 h, 48 h, and 72 h with 0.5 μM DCQ, RMB054 or RMB060, and 1 µM RMB055. Infected cultures treated with DMSO served as controls. TEM preparations were performed as described earlier. Samples were observed on a Philips CM 12 (Philips Research, Eindhoven, Holland) or a FEI Tecnai Spirit BioTwin TEM (TESCAN GmbH, Dormund, Germany), both operating at 80 kV.

[8] = parameters: method as in PMID 19614848; settings: milking cows, formulated DCQ 0.5 mg/kg; cited from earlier work
T. gondii = settings: cited from earlier work
[9] = HFF vs T. gondii, compound applied prior to / concomitantly with infection
[10] = Tg-β-gal in HFF, compound added 3 h post-infection, [upper, lower limit of 95% CI], read-out: IC50 T. gondii (nM) [LS, LI] Compound Added 3 h Post-infection
[11] = Tg-β-gal in HFF, compound added prior to / concomitantly with infection, [upper, lower limit of 95% CI], read-out: IC50 T. gondii (nM) [LS, LI] Compound Added Prior to Infection
[12] = short-term growth assays, added with infection or 3 h after, read-out: IC50 T. gondii, range depending on the time point of initiation of treatment
[13] = 10 mg/kg/day oral, days 9–13 post-mating

SMILES | Selectivity Index [1, 9] | IC50 [1, 10] [nM] | IC50 [1, 11] [nM] | IC50 [1, 12] [nM] | Expression of the bradyzoite marker BAG1 [2] | Concentration up to which viability of uninfected HFF was not impaired [3] [µM] | IC50 [3] [µM] | Interference in pregnancy [6, 13] | No. of Non-Pregnant Mice/No. of Mice [6, 13] | No. of Pregnant Mice/No. of Mice [6, 13] | Litter Size [6, 13] | further results
CCCCCCCCCCOc1cc2c(O)c(C(=O)OCC)cnc2cc1OCC [DCQ, ethyl 6-decyloxy-7-ethoxy-4-oxo-1H-quinoline-3-carboxylate] | >4545 | 4.7 | 1.1 | 1.1 to 4.7 | induced the expression of BAG1 | 5 | > 5 | strong interference in pregnancy outcome | 4/6 | 2/6 | 7 | Parasiticidal effect after long-term treatment ([4]; 500 nM, 52 days): no parasiticidal effect; Parasiticidal effect in long-term treatment assays ([4]; up to 500 nM per day for 24 days): not parasiticidal; LD50 [5]: > 5000 mg/kg; Neonatal Mortality ([6]; female, BALB/c, mouse, in vivo, po, 10 mg/kg/day): 0/7; Ultrastructural alterations of the parasite mitochondrion (TEM) ([7]; within 24 h): distinct alterations in the parasite mitochondrion; maximum concentration attained in plasma [8]: 2 µM; Effect of treatment of infected cultures, T. gondii RH strain (T. gondii; 240 nM): tissue cyst formation; IC50 (T. gondii; read-out: IC50, inhibition of T. gondii proliferation in vitro): 12 nM
CCCCCCCCCCOc1cc2c(OC(=O)N3CCN(S(C)(=O)=O)C3=O)c(C(=O)OCC)cnc2cc1OCC [RMB060] | >142,857 | 0.7 | 0.07 | 0.07 to 0.7 | expression of the bradyzoite marker BAG1 in the cytoplasm of some, but not all, parasites | 10 | > 10 | only minor interference in pregnancy | 2/6 | 4/6 | 27 | Concentration that caused a complete growth inhibition in dose response assays ([1]; T. gondii tachyzoites in HFF): 500 nM; Selectivity Index ([1]; compound added to intracellular parasites at 3 h post-infection): > 14,000; Killing of tachyzoites after long-term exposure ([4]; 300 nM for 52 days): did not result in the complete killing of all tachyzoites; Concentration to which tachyzoites adapted, fold the IC50 ([4]; exposure for longer timespans, parasites resumed proliferation and formed lysis plaques): up to 4286 fold; Postnatal Mortality [6, 13]: 0/24; Neonatal Mortality ([6]; first 2 days post-partum, 10 mg/kg/day oral, days 9–13 post-mating): 3/27; Ultrastructural alterations of the parasite mitochondrion (TEM) ([7]; 500 nM for 6 h, treatment started 3 h after infection): mitochondrial matrix had a less electron dense appearance and dissolved cristae became evident; IC50 (T. gondii; read-out: previously reported IC50 against T. gondii): 1.1 nM
